Assay results as given in patent publication US9365559B2, “Crystal form of Dabrafenib and preparation method of use thereof” (Hangzhou Pushai Pharmaceutical Technology Co., LTD., priority 2013, dated 2016).
“Also recorded” adds a separate entry of the source.

Tests used:
[1] = Storage stability test (XRPD before and after storing); assay type: physicochemical; conditions: room temperature-97% RH, -75% RH, -44% RH or oven of 40° C.
Text: The storage stability test is: storing the sample under constant conditions (i.e. constant humidity or constant temperature) for a certain time, and then comparing the XRPDs before and after storing.

[2] = Competition test (suspension of equal amounts stirred overnight, XRPD); assay type: physicochemical; conditions: in pure water, room temperature, stirred overnight
Text: The competition test is: take equal amount of the samples, and respectively place them in isopropanol or in a mixture of water (pure water) and ethanol (wherein the volume percentage of ethanol is 0%, 20%, 50%, 80% and 100%, respectively) to form a suspension, stir it overnight at room temperature, then compare their XRPDs.

[3] = Crystal form stability during wet granulation tablet preparation (XRPD); assay type: physicochemical
Text: The Known Crystal Form 1, the Known Crystal Form 2 and Crystal Form VI of the present invention are examined for their stability during the formulation preparation of the wet granulation process.
The preparation process of the tablet is a parallel experiment.
(1) Blend API (selected from the Known Crystal Form 1, the Known Crystal Form 2 or Crystal Form VI of the present invention), lactose (monohydrate) and microcrystalline cellulose uniformly.
(2) Make the above mixture into soft materials by using an appropriate amount of 50% aqueous ethanol solution, screen to produce the wet granules and then dry the wet granules.
(3) Granulate the dried sample, blend with polyethylene glycol 6000 uniformly and then compress into tablets.
Respectively, take XRPD tests on the following samples obtained in the formulation preparing process of the Known Crystal Form 1, the Known Crystal Form 2 and Crystal Form VI of the present invention: (Sample 1) the sample obtained by physically blending API, lactose, microcrystalline cellulose with polyethylene glycol 6000 according to the preparation formula; (Sample 2) the sample obtained by granulating with API, lactose, microcrystalline cellulose and polyethylene glycol 6000 according to the “wet granulation” process (excluding the sample obtained after the Step (3)); (Sample 3) excluding API, the sample obtained by physically blending lactose, microcrystalline cellulose with polyethylene glycol 6000 according to the preparation formula.

[4] = Dynamic vapor sorption (DVS) hygroscopicity; assay type: physicochemical; conditions: from DVS, 20~80% RH
Protocol: The dynamic vapor sorption analysis (DVS) data are collected by TA Instruments Q5000 TGA; the instrument control software is Thermal Advantage and the analysis software is Universal Analysis. Generally, take 1˜10 mg of the sample and place it in a platinum pan, and the weight changes of the sample are recorded during the course of the relative humidity changing from 0% to 80% and then to 0%. According to the specifics of the samples, different adsorption and desorption steps may be used.
The hygroscopicity is obtained by DVS testing of the weight changes between 20%-80% RH.

[5] = Polarized light microscopy (PLM) morphology; assay type: physicochemical
Text: Polarized Light Microscope (PLM) plots are collected from XP-500E polarized light microscope (by Shanghai Changfang Optical Instrument Co., Ltd). Place a small amount of powder sample on a slide glass, drip some mineral oil to disperse the powder sample, place the cover slip, then place the sample on the loading table of XP-500E polarized light microscope, choose the appropriate magnitude to observe the morphology of the sample and take pictures thereof.
(§1) The morphology comparison is obtained by PLM testing of particle shape and PSD testing of particle size.

[6] = Thermogravimetric analysis (TGA), thermal stability; assay type: physicochemical
Protocol: The thermogravimetric analysis (TGA) data are collected by TA Instruments Q500 TGA; the instrument control software is Thermal Advantage and the analysis software is Universal Analysis. Generally, take 5˜15 mg sample and place it in a platinum pan, adopt the segmental high-resolution testing mode, and under the protection of 50 mL/min dry N2, heat the sample from room temperature to 300° C. at the heating rate of 10° C./min, the weight changes of the sample during the course are recorded by TA software simultaneously.

[7] = Crystal form stability during wet granulation tablet preparation (XRPD); assay type: physicochemical; conditions: tablet prepared by wet granulation, stored 6 months at 40° C./75% RH
[8] = Crystal form stability on stirring in or exposure to water, aqueous ethanol or other solvent; assay type: physicochemical; conditions: stirred in water or aqueous ethanol solution at room temperature or high temperature (40° C.)
[9] = Crystal form stability in oral suspension (XRPD); assay type: physicochemical
Protocol: The preparation of the oral suspension containing the crystal forms of the present invention.
API (selected from Crystal Form VI of Dabrafenib of the present invention): 2 g;
Blend API (selected from Crystal Form VI of Dabrafenib of the present invention), cocklebur gum, sodium dihydrogen citrate, methylparaben, syrupus simplex and orange flavor, add water to 1,000 mL and stir the mixture uniformly. After that, divide the solution into 100 bottles with 20 mg API in each bottle.

[10] = Particle size distribution (PSD), laser diffraction; assay type: physicochemical; conditions: dispersant water with 2% tween-80
Text: The particle size distribution (PSD) plot is obtained using Microtrac S3500 laser diffraction particle size analyzer. The method parameters are as follows: flow velocity of the dispersant is 50%; the dispersant is water (added with 2% tween-80); the sample refractivity is 1.58; the laser source wavelength is 780 nm; and the integral mode is volume.
as §1

[11] = Crystal form stability in capsules prepared by wet granulation (XRPD); assay type: physicochemical
Text: The preparation of the capsules containing the crystal forms of the present invention.
3) Blend API (selected from the Known Crystal Form 1, the Known Crystal Form 2 and Crystal Form VI of the present invention), microcrystalline cellulose (avicel) and sodium carboxymethyl starch (SSG) uniformly.
4) Make the above mixture into soft materials by using an appropriate amount of 50% aqueous ethanol solution, then screen to produce the wet granules.
5) Dry the wet granules, grind and disperse uniformly and then transfer them into the capsules.

[12] = test system: one or more Raf-family kinases; conditions: disclosed in WO2009/137391A2 and U.S. Pat. No. 7,994,185B2; cited from earlier work
[13] = test system: BRAFV600E-mutan melanoma; conditions: patients with BRAFV600E-mutan melanoma; cited from earlier work

CC(C)(C)c1nc(-c2cccc(NS(=O)(=O)c3c(F)cccc3F)c2F)c(-c2ccnc(N)n2)s1 [Crystal Form VI, N-[3-[5-(2-aminopyrimidin-4-yl)-2-(tert-butyl)thiazo-4-lyl]-2-fluorophenyl]-2,6-difluorobenzenesulfonamide]
Storage stability (crystal form by XRPD) ([1]; stored 3 months in desiccator at room temperature): its crystal form did not change | Storage stability (crystal form) ([1]; stored for a long time in desiccator at room temperature): stable when stored for a long time | Competition test, comparison of stability (position in the rank order) [2]: >The Known Crystal Form 1 | crystal form of API after physical blending with excipients ([3]; XRPD of Sample 1 vs Sample 3, lactose, microcrystalline cellulose, polyethylene glycol 6000): keeps unchanged | crystal form of API in the wet granulation process ([3]; XRPD of Sample 2 vs Sample 1, 50% aqueous ethanol solution): stable; also recorded: more stable than the Known Crystal Form 1 and the Known Crystal Form 2 | crystal form stability after tableting ([3]; tablet): stable after tableting | crystal form stability in the wet granulation process or in the suspension ([3]; wet granulation process or suspension): keeps its form unchanged | hygroscopicity (in words) [4]: not hygroscopic; also recorded: low hygroscopicity; also recorded: lower than that of the Known Crystal Form 1 | Morphology (particle shape) [5]: fine crystals; also recorded: Fine particles | decomposition temperature ([6]; TGA, 10° C./min, dry N2): 271 °C | stability at high temperature (in words) ([6]; conclusion from DSC/TGA test results): very stable at high temperature | stability of tablet on storage [7]: still stable | crystal form stability when stirred [8]: keeps its form unchanged | crystal form in oral suspension on storage ([9]; oral suspension stored 6 months at 40° C./75% RH): still stable | crystal form in oral suspension ([9]; oral suspension, XRPD): stable | D10 [10]: 7 μm | D50 [10]: 18 μm | crystal form in capsules ([11]; capsules prepared by wet granulation process, XRPD): stable | crystal form in capsules on storage ([11]; capsules stored 6 months at 40° C./75% RH): still stable

CC(C)(C)c1nc(-c2cccc(NS(=O)(=O)c3c(F)cccc3F)c2F)c(-c2ccnc(N)n2)s1 [Dabrafenib, N-[3-[5-(2-aminopyrimidin-4-yl)-2-(tert-butyl)thiazo-4-lyl]-2-fluorophenyl]-2,6-difluorobenzenesulfonamide]
inhibitory effect on Raf-family kinases [12]: has the inhibitory effection | safety profile [13]: acceptable safety profile | therapeutical activity [13]: has therapeutical activities
